Laboratory results taken from US12274264B2, “Piperonylic acid derivative and application thereof” (SHENYANG SINOCHEM AGROCHEMICALS R&D CO., LTD., priority 2019, dated 2025).

Assays:
Type in all cases: in vivo
diamondback moth = experiment: Determination of activity against diamondback moth (cabbage leaf disc dip, mortality after 72 hours); details: Plutella xylostella, foliar, 10 mg/L, second instar, read-out: mortality rates against diamondback moth
Method: (§1) According to the solubility of test compounds, the compounds are dissolved with acetone or dimethyl sulfoxide, and then diluted with 0.1% Tween 80 solution to form a required concentration of 50 ml test liquid. The content of the acetone or the dimethyl sulfoxide in the total solution is not more than 10%.
The leaves of cabbage grown in greenhouse were selected, removed the surface waxy layers, punched into circular leaf discs with a diameter of 2 cm by using a puncher, and dipped into a solution of the required concentration of test compounds for 10 seconds. After dried in shade, the circular leaf discs were placed in a 9 cm diameter petri dish provided with filter paper. Ten regular healthy test insects (second instar) were put into the leaf discs. Four replicates were set for each treatment. The pure water treatment was set as control check. The treated discs were placed in a chamber of 24° C., 60%-70% relative humidity and day light. After 72 hours, the number of surviving insects was investigated, and the mortality rate was calculated.

[1] = test system: western flower thrips nymphs; experiment: Determination of activity against western flower thrips nymphs (sprayed kidney bean leaves, mortality after 72 hours); details: Frankliniella occidentalis, after 72 hours; for mortality at 600 µg/mL: 600 mg/L, read-out: mortality rates against western flower thrips nymphs; for mortality at 10 µg/mL: 10 mg/L; for mortality at 10 µg/mL / mortality at 100 µg/mL: read-out: Mortality (%) against Western Flower Thrips Nymphs; for mortality at 100 µg/mL: 100 mg/L
Method: as §1
Fresh kidney bean leaves cultured in the glasshouse were selected and uniformly sprayed with 1 ml of the test liquid by using a handheld Airbrush. The leaves were dried naturally and placed in a test tube. Fifteen tidy and healthy western flower thrips nymphs were put into the leaves. Three replicates were set for each treatment. The water treatment was set as control check. After the treatment, the treated tube were placed in a chamber of 24° C., 60%-70% relative humidity and day light. After 72 hours, the number of surviving insects was investigated, and the mortality was calculated.

armyworm = experiment: Determination of activity against armyworm (corn leaf dip, mortality after 72 hours); details: foliar, 10 mg/L, third instar, read-out: mortality rates against armyworm
Method: as §1
The middle leaves of fresh corns were cut into small sections of 3 cm, and dipped into a solution of the required concentration of test compounds for 10 seconds. After dried in shade, the middle leaves were placed in a 9 cm diameter petri dish provided with filter paper. Fourteen regular healthy test insects (third instar) were put into the leaves. Four replicates were set for each treatment. The pure water treatment was set as control check. The treated discs were placed in a chamber of 24° C., 60%-70% relative humidity and day light. After 72 hours, the number of surviving insects was investigated, and the mortality rate was calculated.

[2] = test system: Tribolium confusum adults; experiment: Determination of Tribolium confusum adults (treated feeding bran, 72 h); details: after 72 h; for mortality at 600 µg/mL: 600 mg/L, read-out: mortality rates against Tribolium confusum adults
Method: as §1
The test liquid was prepared in the order from low dose to high dose according to the test design. Then, the liquid of different concentrations was added to feeding bran and uniformly stirred, and dried in the shade. Then, the resulting feeding bran was collected in a paper cup. Fifty Tribolium confusum adults with consistent size were put in the paper cup. Three replicates were set for each treatment. Control check was set. The treated test materials were put in an observation room under controlled conditions. After 72 h, the number of dead and surviving adults was investigated.

[3] = test system: Tetranychus cinnabarinus adults; experiment: Determination of acaricidal activity (spray on bean plant leaves with adult spider mites, mortality after 72 hours); details: after 72 hours, read-out: Mortality (%) against Tetranychus Cinnabarinus Adult
Method: as §1
The adult spider mites were put into two true leaves of bean plants. After the number of mites was investigated, the solution of certain concentrations of test compounds was sprayed by using a handheld Airbrush. Three replicates were set for each treatment. Then the leaves were maintained in a standard observation room. After 72 hours, the number of surviving mites was investigated, and the mortality rate was calculated. Compounds I-41, KC3, KC4 and MC were selected for parallel determination of activity against Tetranychus cinnabarinus adults.

| SMILES | mortality at 10 µg/mL (diamondback moth) | mortality at 600 µg/mL [1] | mortality at 10 µg/mL (armyworm) | mortality at 600 µg/mL [2] | mortality at 10 µg/mL [1] | mortality at 100 µg/mL [1] | mortality at 10 µg/mL ([3]; 10 mg/L) | mortality at 100 µg/mL ([3]; 100 mg/L) | mortality at 600 µg/mL ([3]; 600 mg/L) | mortality at 5 µg/mL ([2]; 5 mg/L, read-out: Mortality (%) against Tribolium Confusum Adults) | mortality at 20 µg/mL ([2]; 20 mg/L, read-out: Mortality (%) against Tribolium Confusum Adults) |
| --- | --- | --- | --- | --- | --- | --- | --- | --- | --- | --- | --- |
| O=C(Nc1cccc(C(=O)Nc2c(I)cc(C(F)(C(F)(F)F)C(F)(F)F)cc2OC(F)F)c1F)c1ccc2c(c1)OC(F)(F)O2 [Compound I-1] | > 90% | > 90% | > 90% | > 90% | – | – | – | – | – | – | – |
| CN(C(=O)c1ccc2c(c1)OC(F)(F)O2)c1cccc(C(=O)Nc2c(I)cc(C(F)(C(F)(F)F)C(F)(F)F)cc2OC(F)F)c1F [Compound I-2] | > 90% | > 90% | > 90% | > 90% | – | – | – | – | – | – | – |
| O=C(Nc1cccc(C(=O)Nc2c(Br)cc(C(F)(C(F)(F)F)C(F)(F)F)cc2OC(F)F)c1F)c1ccc2c(c1)OC(F)(F)O2 [Compound I-41] | > 90% | > 90% | > 90% | > 90% | 90% | 95% | 87% | 100% | 100% | – | – |
| CN(C(=O)c1ccc2c(c1)OC(F)(F)O2)c1cccc(C(=O)Nc2c(Br)cc(C(F)(C(F)(F)F)C(F)(F)F)cc2OC(F)F)c1F [Compound I-42, N-(2-bromo-6-difluoromethoxy-4-heptafluoroisopropylphenyl)-2-fluoro-3-(N-methyl-2,2-difluoro-1,3-benzodioxole-5-carboxamido) benzamide] | > 90% | > 90% | > 90% | > 90% | 91% | 100% | – | – | – | 81% | 100% |
| CCN(C(=O)c1ccc2c(c1)OC(F)(F)O2)c1cccc(C(=O)Nc2c(Br)cc(C(F)(C(F)(F)F)C(F)(F)F)cc2OC(F)F)c1F [Compound I-43, N-(2-bromo-6-difluoromethoxy-4-heptafluoroisopropylphenyl)-2-fluoro-3-(N-ethyl-2,2-difluoro-1,3-benzodioxole-5-carboxamido) benzamide] | > 90% | > 90% | > 90% | > 90% | – | – | – | – | – | – | – |
| CCCCN(C(=O)c1ccc2c(c1)OC(F)(F)O2)c1cccc(C(=O)Nc2c(Br)cc(C(F)(C(F)(F)F)C(F)(F)F)cc2OC(F)F)c1F [Compound I-46, N-(2-bromo-6-difluoromethoxy-4-heptafluoroisopropylphenyl)-2-fluoro-3-(N-n-butyl-2,2-difluoro-1,3-benzodioxole-5-carboxamido) benzamide] | > 90% | > 90% | > 90% | > 90% | – | – | – | – | – | – | – |
| O=C(Nc1c(Br)cc(C(F)(C(F)(F)F)C(F)(F)F)cc1OC(F)F)c1cccc(N(CC2CC2)C(=O)c2ccc3c(c2)OC(F)(F)O3)c1F [Compound I-50, N-(2-bromo-6-difluoromethoxy-4-heptafluoroisopropylphenyl)-2-fluoro-3-(N-cyclopropylmethyl-2,2-difluoro-1,3-benzodioxole-5-carboxamido) benzamide] | > 90% | > 90% | > 90% | > 90% | – | – | – | – | – | – | – |
| CC(C)=CCCC(C)CCN(C(=O)c1ccc2c(c1)OC(F)(F)O2)c1cccc(C(=O)Nc2c(Br)cc(C(F)(C(F)(F)F)C(F)(F)F)cc2OC(F)F)c1F (stereo not drawn) [Compound I-57] | > 90% | > 90% | > 90% | > 90% | – | – | – | – | – | – | – |
| CSCCCN(C(=O)c1ccc2c(c1)OC(F)(F)O2)c1cccc(C(=O)Nc2c(Br)cc(C(F)(C(F)(F)F)C(F)(F)F)cc2OC(F)F)c1F [Compound I-60, N-(2-bromo-6-difluoromethoxy-4-heptafluoroisopropylphenyl)-2-fluoro-3-(N-(3-methylthiopropyl)-2,2-difluoro-1,3-benzodioxole-5-carboxamido) benzamide] | > 90% | > 90% | > 90% | > 90% | – | – | – | – | – | – | – |
